Experimental data published in patent US9340580B2, “Peptide with multiple epitopes” (priority 2007, dated 2016).
Where a SMILES comes first, the peptide text is derived from it.

Assay: solubility pre-screen in an aqueous, acidic milieu; note: test concentration or dose not given here
Type: physicochemical

Structure (SMILES)	Solubility test
CC[C@H](C)[C@H](N)C(=O)NCC(=O)N[C@H](C(=O)N[C@@H](CCCCN)C(=O)N[C@@H](CC(=O)O)C(=O)N[C@@H](CC(C)C)C(=O)N[C@@H](CC(=O)O)C(=O)N[C@@H](C)C(=O)N[C@@H](Cc1ccccc1)C(=O)N[C@@H](CCCNC(=N)N)C(=O)N[C@@H](Cc1c[nH]cn1)C(=O)N[C@@H](Cc1ccc(O)cc1)C(=O)N[C@@H](CC(=O)O)C(=O)O)[C@@H](C)CC [HDM11] (H-IGIKDLDAFRHYD-OH)	YES
CC[C@H](C)[C@H](NC(=O)[C@H](CCCCN)NC(=O)[C@@H](N)CC(N)=O)C(=O)N[C@@H](CCCNC(=N)N)C(=O)N[C@@H](CCC(=O)O)C(=O)N[C@@H](C)C(=O)N[C@@H](CC(C)C)C(=O)N[C@@H](C)C(=O)N[C@@H](CCC(N)=O)C(=O)N[C@H](C(=O)N[C@@H](Cc1c[nH]cn1)C(=O)N[C@@H](CO)C(=O)N[C@@H](C)C(=O)O)[C@@H](C)O [HDM08] (H-NKIREALAQTHSA-OH)	YES
CC[C@H](C)[C@H](N)C(=O)N[C@@H](CC(=O)O)C(=O)N[C@@H](CC(C)C)C(=O)N[C@@H](CCCNC(=N)N)C(=O)N[C@@H](CCC(N)=O)C(=O)N[C@@H](CCSC)C(=O)N[C@@H](CCCNC(=N)N)C(=O)N[C@H](C(=O)N[C@H](C(=O)N[C@H](C(=O)N1CCC[C@H]1C(=O)N[C@H](C(=O)N[C@@H](CCCNC(=N)N)C(=O)O)[C@@H](C)CC)[C@@H](C)O)C(C)C)[C@@H](C)O [HDM01] (H-IDLRQMRTVTPIR-OH; N-terminus and C-terminus assumed)	YES
CSCC[C@H](NC(=O)[C@H](CCC(N)=O)NC(=O)[C@H](CCCCN)NC(=O)[C@H](CC(C)C)NC(=O)CNC(=O)[C@@H](N)CCCNC(=N)N)C(=O)N[C@@H](CCCCN)C(=O)N[C@@H](CCCNC(=N)N)C(=O)N[C@H](C(=O)NCC(=O)N[C@@H](CC(=O)O)C(=O)N[C@@H](C)C(=O)N[C@@H](CC(N)=O)C(=O)O)C(C)C [HDM35] (H-RGLKQMKRVGDAN-OH; N-terminus and C-terminus assumed)	YES
CC(C)[C@H](NC(=O)[C@H](Cc1ccc(O)cc1)NC(=O)[C@@H](N)CCCNC(=N)N)C(=O)N[C@@H](C)C(=O)N[C@@H](CCCNC(=N)N)C(=O)N[C@@H](CCC(=O)O)C(=O)N[C@@H](CCC(N)=O)C(=O)N[C@@H](CO)C(=O)N[C@@H](CS)C(=O)N[C@@H](CCCNC(=N)N)C(=O)N[C@@H](CCCNC(=N)N)C(=O)N1CCC[C@H]1C(=O)N[C@@H](CC(N)=O)C(=O)O [HDM06] (H-RYVAREQSCRRPN-OH; N-terminus and C-terminus assumed)	YES
CC(C)[C@H](NC(=O)[C@H](C)NC(=O)[C@@H](N)CCC(=O)O)C(=O)N[C@@H](Cc1ccccc1)C(=O)N[C@@H](CCC(=O)O)C(=O)N[C@@H](C)C(=O)N[C@@H](CC(N)=O)C(=O)N[C@@H](CCC(N)=O)C(=O)N[C@@H](CC(N)=O)C(=O)N[C@H](C(=O)N[C@@H](CCCCN)C(=O)N[C@H](C(=O)N[C@@H](C)C(=O)N[C@@H](CCCCN)C(=O)O)[C@@H](C)O)[C@@H](C)O [HDM22A] (H-EAVFEANQNTKTAK-OH; N-terminus and C-terminus assumed)	YES
CC(C)[C@H](NC(=O)[C@H](CCCNC(=N)N)NC(=O)[C@@H](N)CCCCN)C(=O)NCC(=O)N[C@@H](CC(=O)O)C(=O)N[C@@H](C)C(=O)N[C@@H](CC(N)=O)C(=O)N[C@H](C(=O)N[C@@H](CCCCN)C(=O)N[C@@H](CO)C(=O)N[C@@H](CCC(=O)O)C(=O)N[C@@H](CC(=O)O)C(=O)NCC(=O)O)C(C)C [HDM36] (H-KRVGDANVKSEDG-OH)	YES
CSCC[C@H](NC(=O)[C@H](CO)NC(=O)[C@@H](NC(=O)[C@@H](NC(=O)[C@H](CC(=O)O)NC(=O)[C@@H](N)CC(=O)O)C(C)C)C(C)C)C(=O)N[C@@H](CCC(=O)O)C(=O)N[C@@H](Cc1ccc(O)cc1)C(=O)N[C@@H](CC(=O)O)C(=O)N[C@@H](CC(C)C)C(=O)N[C@@H](C)C(=O)N[C@@H](Cc1ccc(O)cc1)C(=O)N[C@@H](CCCCN)C(=O)O [HDM39] (H-DDVVSMEYDLAYK-OH; N-terminus and C-terminus assumed)	NO*
CSCC[C@H](NC(=O)[C@H](CCC(=O)O)NC(=O)[C@H](C)NC(=O)[C@H](CCCNC(=N)N)NC(=O)[C@@H](NC(=O)[C@@H](NC(=O)[C@@H](N)CC(=O)O)[C@@H](C)O)C(C)C)C(=O)N[C@H](C(=O)N[C@@H](CCCCN)C(=O)N[C@H](C(=O)N[C@@H](CC(C)C)C(=O)N[C@@H](C)C(=O)N1CCC[C@H]1C(=O)O)C(C)C)[C@@H](C)O [HDM49] (H-DTVRAEMTKVLAP-OH; N-terminus and C-terminus assumed)	YES
CSCC[C@H](NC(=O)[C@@H]1CCCN1C(=O)[C@H](CC(=O)O)NC(=O)[C@H](Cc1ccccc1)NC(=O)[C@@H](NC(=O)[C@@H](N)CCC(=O)O)[C@@H](C)O)C(=O)N[C@@H](CCCCN)C(=O)N[C@H](C(=O)N1CCC[C@H]1C(=O)N[C@@H](CC(=O)O)C(=O)N[C@@H](Cc1c[nH]cn1)C(=O)N[C@@H](CO)C(=O)N[C@@H](CC(=O)O)C(=O)N[C@@H](CCCCN)C(=O)O)C(C)C [HDM29A] (H-ETFDPMKVPDHSDK-OH)	YES
CC(C)C[C@H](NC(=O)[C@H](CC(=O)O)NC(=O)[C@@H](N)CCCCN)C(=O)N[C@@H](CC(=O)O)C(=O)N[C@@H](C)C(=O)N[C@@H](Cc1ccccc1)C(=O)N[C@@H](CCCNC(=N)N)C(=O)N[C@@H](Cc1c[nH]cn1)C(=O)N[C@@H](Cc1ccc(O)cc1)C(=O)N[C@@H](CC(=O)O)C(=O)NCC(=O)N[C@@H](CCCNC(=N)N)C(=O)N[C@H](C(=O)O)[C@@H](C)O [HDM12] (H-KDLDAFRHYDGRT-OH)	YES
C[C@@H](O)[C@H](NC(=O)[C@H](CC(=O)O)NC(=O)[C@H](Cc1c[nH]c2ccccc12)NC(=O)[C@H](CO)NC(=O)[C@H](CC(N)=O)NC(=O)[C@@H](N)CCCNC(=N)N)C(=O)N[C@@H](CC(N)=O)C(=O)N[C@@H](Cc1c[nH]c2ccccc12)C(=O)NCC(=O)N[C@@H](CC(=O)O)C(=O)N[C@@H](CC(N)=O)C(=O)NCC(=O)N[C@@H](Cc1ccc(O)cc1)C(=O)NCC(=O)O [HDM16A] (H-RNSWDTNWGDNGYG-OH)	YES
CC[C@H](C)[C@H](NC(=O)[C@H](CCC(=O)O)NC(=O)[C@H](Cc1c[nH]cn1)NC(=O)[C@H](CC(N)=O)NC(=O)[C@H](C)NC(=O)[C@H](CS)NC(=O)[C@H](CC(=O)O)NC(=O)[C@H](CCCCN)NC(=O)[C@@H](NC(=O)[C@H](CC(=O)O)NC(=O)[C@@H](NC(=O)[C@H](CCC(N)=O)NC(=O)[C@@H](N)CC(=O)O)C(C)C)C(C)C)C(=O)N[C@@H](CCCCN)C(=O)N[C@@H](CCCCN)C(=O)O [HDM19] (H-DQVDVKDCANHEIKK-OH)	YES
CC[C@H](C)[C@H](NC(=O)[C@@H](NC(=O)[C@@H](N)CS)[C@@H](C)CC)C(=O)N[C@@H](Cc1c[nH]cn1)C(=O)N[C@@H](CCCNC(=N)N)C(=O)NCC(=O)N[C@@H](CCCCN)C(=O)N1CCC[C@H]1C(=O)N[C@@H](Cc1ccccc1)C(=O)N[C@@H](CCC(N)=O)C(=O)N[C@@H](CC(C)C)C(=O)N[C@@H](CCC(=O)O)C(=O)N[C@@H](C)C(=O)O [HDM20] (H-CIIHRGKPFQLEA-OH; N-terminus and C-terminus assumed)	YES
